Laboratory results as given in BindingDB's records for patent USRE49517 (Janssen Pharmaceuticals, 2023).

Target: Potassium voltage-gated channel subfamily H member 2 (Homo sapiens, UniProt Q12809)
Test: Inhibition of Specific Binding to the hERG Receptor (HERGBD)
Protocol: Binding was terminated by filtration of the incubated membrane preparations using Filtermat B (Pharmacia, Uppsala Sweden) and a Micro Cell Harvester (Skatron, Lier, Norway). The Filtermat B had been presoaked with 1% polyethylen imine and carefully washed with 0.05 M Tris/HCl-buffer pH=7.7 after the filtration to separate free and bound radioactivity. […] The optimal amount of membrane preparation in the assay was determined and optimized for each membrane preparation separately in front of using the membranes in compound testing. […] For pipetting of the incubation mixture we routinely use the robot Biomek2000 (Fa. Beckman).

Chain of Potassium voltage-gated channel subfamily H member 2 (Q12809 whole entry): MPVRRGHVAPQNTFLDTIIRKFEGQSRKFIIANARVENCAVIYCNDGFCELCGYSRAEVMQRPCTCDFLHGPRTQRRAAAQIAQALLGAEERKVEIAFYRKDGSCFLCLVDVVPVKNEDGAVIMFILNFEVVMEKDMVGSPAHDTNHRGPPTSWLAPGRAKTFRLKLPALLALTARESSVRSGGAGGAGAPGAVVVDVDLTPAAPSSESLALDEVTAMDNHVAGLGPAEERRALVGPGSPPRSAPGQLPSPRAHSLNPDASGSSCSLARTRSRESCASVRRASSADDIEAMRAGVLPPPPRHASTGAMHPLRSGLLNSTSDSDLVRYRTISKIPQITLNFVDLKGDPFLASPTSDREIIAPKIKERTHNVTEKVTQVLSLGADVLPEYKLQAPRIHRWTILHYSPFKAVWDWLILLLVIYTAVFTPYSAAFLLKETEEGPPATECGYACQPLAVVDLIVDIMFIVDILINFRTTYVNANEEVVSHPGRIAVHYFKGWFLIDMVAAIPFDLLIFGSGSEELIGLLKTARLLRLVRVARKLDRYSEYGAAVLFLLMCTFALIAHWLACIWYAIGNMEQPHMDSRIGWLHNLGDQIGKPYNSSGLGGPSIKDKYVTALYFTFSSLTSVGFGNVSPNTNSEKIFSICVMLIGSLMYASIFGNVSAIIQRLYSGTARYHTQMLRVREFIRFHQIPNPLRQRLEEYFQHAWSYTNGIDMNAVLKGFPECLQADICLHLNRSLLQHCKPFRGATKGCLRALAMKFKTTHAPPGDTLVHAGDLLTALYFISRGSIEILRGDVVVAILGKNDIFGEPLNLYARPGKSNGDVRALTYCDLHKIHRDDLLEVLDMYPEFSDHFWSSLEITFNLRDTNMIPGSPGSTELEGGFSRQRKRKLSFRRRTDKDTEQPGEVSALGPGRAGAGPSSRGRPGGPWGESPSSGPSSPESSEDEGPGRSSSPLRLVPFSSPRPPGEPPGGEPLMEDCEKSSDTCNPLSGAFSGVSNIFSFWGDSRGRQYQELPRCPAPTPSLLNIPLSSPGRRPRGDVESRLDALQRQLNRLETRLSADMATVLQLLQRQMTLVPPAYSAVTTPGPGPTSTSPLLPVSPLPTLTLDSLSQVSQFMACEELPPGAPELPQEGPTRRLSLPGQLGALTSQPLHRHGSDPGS

## COc1cc(Cl)ccc1-c1cnn(Cc2ccn(C)n2)c1 [USRE49517, Example 67]
  IC50: 63.3 µM
